Assay results from ChEMBL document CHEMBL1909046, “DrugMatrix in vitro pharmacology data”.

Experiments:
Melanocortin receptor 3 = Melanocortin receptor 3 (Homo sapiens, UniProt P41968); assay type: cell membranes, HEK293, Membrane; conditions: hek293; note: in other assays of this panel Not Active means under 50% inhibition at 10 µM
[1] = DRUGMATRIX: Purinergic P2X radioligand binding (ligand: [3H] alpha, beta-Methylene-ATP); assay type: cell membranes, Oryctolagus cuniculus, New Zealand albino, Urinary bladder, Membrane; conditions: Not Active = under 50% inhibition at 10 µM
[2] = DRUGMATRIX: Calcium Channel Type L, Dihydropyridine radioligand binding (ligand: [3H] Nitrendipine); assay type: cell membranes, Rattus norvegicus, Wistar, Cerebral cortex, Membrane; conditions: Not Active = under 50% inhibition at 10 µM
[3] = molecular target: T1, C-C chemokine receptor type 4 (Homo sapiens, UniProt P51679); assay type: cell membranes, Chem-1, Membrane; conditions: chem-1; note: in other assays of this panel Not Active means under 50% inhibition at 10 µM
T1 sequence (P51679 whole entry): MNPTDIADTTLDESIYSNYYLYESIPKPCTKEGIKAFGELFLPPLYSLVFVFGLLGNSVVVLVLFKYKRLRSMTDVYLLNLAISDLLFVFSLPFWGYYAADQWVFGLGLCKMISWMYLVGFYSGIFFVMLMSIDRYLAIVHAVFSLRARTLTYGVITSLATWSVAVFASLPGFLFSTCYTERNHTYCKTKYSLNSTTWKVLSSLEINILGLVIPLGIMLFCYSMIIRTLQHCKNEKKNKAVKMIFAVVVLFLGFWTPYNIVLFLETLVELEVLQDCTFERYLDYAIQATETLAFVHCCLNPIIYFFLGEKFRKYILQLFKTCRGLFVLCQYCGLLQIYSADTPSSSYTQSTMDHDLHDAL

Nitric oxide synthase 1 = Nitric oxide synthase 1 (Rattus norvegicus, UniProt P29476); assay type: tissue-based, Cerebellum; note: in other assays of this panel Not Active means under 50% inhibition at 10 µM
[4] = DRUGMATRIX: Atrial Natriuretic Factor (ANF) radioligand binding (ligand: [125I] ANF (rat)); assay type: cell membranes, Cavia porcellus, Dunkin-Hartley, Adrenal gland, Membrane; conditions: Not Active = under 50% inhibition at 10 µM
Adenosine receptor A2a = Adenosine receptor A2a (Homo sapiens, UniProt P29274); assay: DRUGMATRIX: Adenosine A2A radioligand binding (ligand: […]); assay type: cell membranes, HEK293, Membrane; conditions: hek293; Not Active = under 50% inhibition at 10 µM
Chain of Adenosine receptor A2a (P29274 whole entry): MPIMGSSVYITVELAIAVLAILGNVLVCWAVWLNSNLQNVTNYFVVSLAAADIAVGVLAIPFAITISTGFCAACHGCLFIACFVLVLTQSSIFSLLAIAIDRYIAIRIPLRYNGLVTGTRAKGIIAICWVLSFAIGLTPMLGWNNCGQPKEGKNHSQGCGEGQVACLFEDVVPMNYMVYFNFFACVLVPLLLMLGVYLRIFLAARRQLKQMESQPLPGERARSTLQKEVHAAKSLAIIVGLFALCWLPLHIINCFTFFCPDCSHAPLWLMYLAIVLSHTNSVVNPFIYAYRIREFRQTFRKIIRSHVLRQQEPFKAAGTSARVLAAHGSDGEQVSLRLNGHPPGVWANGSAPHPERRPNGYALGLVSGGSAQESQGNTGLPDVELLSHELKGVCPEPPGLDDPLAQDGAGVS

Chain of Nitric oxide synthase 1 (P29476 whole entry): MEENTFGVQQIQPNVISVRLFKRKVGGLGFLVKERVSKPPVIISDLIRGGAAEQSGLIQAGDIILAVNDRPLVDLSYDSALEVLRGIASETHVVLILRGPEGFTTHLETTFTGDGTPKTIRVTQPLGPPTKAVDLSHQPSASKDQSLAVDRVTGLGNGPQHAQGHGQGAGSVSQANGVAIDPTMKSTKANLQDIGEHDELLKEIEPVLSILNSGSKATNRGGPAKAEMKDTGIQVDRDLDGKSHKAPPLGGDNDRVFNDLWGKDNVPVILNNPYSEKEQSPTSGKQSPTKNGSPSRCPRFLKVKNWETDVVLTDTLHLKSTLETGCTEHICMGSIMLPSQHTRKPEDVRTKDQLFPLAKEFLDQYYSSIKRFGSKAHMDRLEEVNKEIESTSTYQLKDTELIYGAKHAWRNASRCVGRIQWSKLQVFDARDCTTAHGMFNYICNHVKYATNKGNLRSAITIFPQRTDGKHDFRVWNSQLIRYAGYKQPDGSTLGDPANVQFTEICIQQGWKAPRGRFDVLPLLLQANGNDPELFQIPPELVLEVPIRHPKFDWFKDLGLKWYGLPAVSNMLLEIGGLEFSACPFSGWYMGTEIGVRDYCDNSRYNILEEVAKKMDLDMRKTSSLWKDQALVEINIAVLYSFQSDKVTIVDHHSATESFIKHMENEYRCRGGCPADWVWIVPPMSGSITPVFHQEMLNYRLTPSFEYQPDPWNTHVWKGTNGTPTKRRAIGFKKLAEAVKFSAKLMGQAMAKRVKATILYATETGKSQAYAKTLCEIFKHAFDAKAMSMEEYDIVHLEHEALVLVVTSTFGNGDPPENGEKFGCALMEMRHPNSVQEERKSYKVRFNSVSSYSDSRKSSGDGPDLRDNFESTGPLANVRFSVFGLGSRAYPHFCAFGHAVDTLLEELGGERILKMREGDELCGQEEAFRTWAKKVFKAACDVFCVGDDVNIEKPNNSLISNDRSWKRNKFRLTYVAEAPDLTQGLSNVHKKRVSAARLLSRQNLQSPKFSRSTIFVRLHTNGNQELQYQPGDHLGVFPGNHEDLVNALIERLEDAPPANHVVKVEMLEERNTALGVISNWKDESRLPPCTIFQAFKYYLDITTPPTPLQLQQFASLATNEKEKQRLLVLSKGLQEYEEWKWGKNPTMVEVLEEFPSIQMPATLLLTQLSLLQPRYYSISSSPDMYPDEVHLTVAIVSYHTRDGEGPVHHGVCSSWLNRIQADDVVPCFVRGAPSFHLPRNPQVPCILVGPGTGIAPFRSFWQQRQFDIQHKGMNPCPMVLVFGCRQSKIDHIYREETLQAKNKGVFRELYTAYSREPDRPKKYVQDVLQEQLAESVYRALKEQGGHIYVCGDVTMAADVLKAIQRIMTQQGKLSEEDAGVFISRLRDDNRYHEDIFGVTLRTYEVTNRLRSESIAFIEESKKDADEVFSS
Chain of Melanocortin receptor 3 (P41968 whole entry): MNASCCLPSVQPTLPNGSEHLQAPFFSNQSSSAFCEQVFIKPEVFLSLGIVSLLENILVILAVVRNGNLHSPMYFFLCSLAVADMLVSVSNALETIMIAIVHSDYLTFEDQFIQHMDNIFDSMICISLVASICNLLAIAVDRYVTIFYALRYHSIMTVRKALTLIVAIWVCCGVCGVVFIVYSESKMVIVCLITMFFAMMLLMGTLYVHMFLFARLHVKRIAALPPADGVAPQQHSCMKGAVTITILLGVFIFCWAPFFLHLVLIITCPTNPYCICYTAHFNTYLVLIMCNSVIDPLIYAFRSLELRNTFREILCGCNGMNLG

CC(O)C(=O)O (stereo not given) [LACTIC ACID]
Not Active: IC50 (Melanocortin receptor 3) | IC50 [1] | Ki [1] | IC50 [2] | Ki [2] | IC50 [3] | IC50 (Nitric oxide synthase 1) | IC50 [4] | Ki [4] | IC50 (Adenosine receptor A2a)
